The nature of one data set: Hemolysis assay. The class given is cell-based. The gist of the method:
(§1)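 Washed EDTA-blood erythrocytes in 5% PBS, pH 7.4, were rotated 1 h at 37° C with peptides at 0, 3, 10, 30, 60 μm. Hemoglobin release read at 540 nm as % of 0.1% Triton X-100 hemolysis; CC50 from dose-response curve of triplicates.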

Data set [1] can be described thus: Cytotoxicity (resazurin) assay. The gist of the method: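 HEK293 cells (4000/well) in DMEM with 10% FBS exposed to compound for 20 h at 37 °C, 5% CO2. Resazurin (100 μM final) added for a further 3 h and fluorescence read at 560/590 nm. CC50 obtained from dose–response fit of percentage cytotoxicity.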
Background: The colour change of resazurin is a common sign of viable cells or microbes.

The subject of data set [2] is methicillin-resistant S. aureus strain (ATCC 43300). The class given is cell-based, Staphylococcus aureus. The procedure: Furthermore, sensitivity of a methicillin-resistant S. aureus strain (ATCC 43300) was investigated for palmitoylated CIDAMPs in a microtiter plate screening model, with incubation in Mueller-Hinton medium at 37° C. for 18 h using resazurin as a marker for cell viability.
A sample of each culture was then diluted 40-fold in fresh broth and incubated at 37° C. for 1.5-3 h. […] All the plates were covered and incubated at 37° C. for 18 h.
(§2) Inhibition of bacterial growth was determined using resazurin as a marker for cell viability. Resazurin was added to each well, at 0.001% final concentration, and plates incubated at 37° C. for 2 h. Fluorescence intensity was measured, using F (top read), ex 560/10 nm, em 590/10 nm, using a Tecan M1000 Pro monochromator plate reader.

A further data set has as its system E. coli ATCC 25922. The class given is cell-based, Escherichia coli. As to the method: as §2
Another data set deals with A. baumannii ATCC 19606. The class given is cell-based, Acinetobacter baumannii. As to the method: as §2
For data set [3], the system named is Candida albicans ATCC 24433. Put plainly: CFU-assay, Candida albicans-cidal activity. The class given is cell-based. The procedure: Thus, within the present invention, the antimicrobial activity is generally measured in nutrient deficient 10 mM sodium phosphate buffer pH 5.5, containing 0.25% glucose, using the CFU-assay according to Steinberg and Lehrer, 1997 (supra), unless otherwise indicated. The CFU-assay allows determination of the minimal bactericidal concentration (MBC, e.g., MBC90 and MBC100; i.e. the concentration of compound required to achieve a specified reduction in bacterial cell number (microbial death or killing)). […]
HR 1-17 affects C. albicans ATCC 24433 with highest activity at pH 5.5 in the absence of TSB in the medium (see Tables 12, 24). […] Furthermore, the substitution of any of the Arg residues by Gly leads to a dramatic reduction or loss of candidacidal activity (see Table 24).

A further data set deals with P. aeruginosa ATCC 10145. Briefly: CFU-assay, P. aeruginosa-cidal activity. The class given is cell-based, Pseudomonas aeruginosa.
The subject of data set [4] is Escherichia coli ATCC11775. Briefly: CFU-assay, antimicrobial activity spectrum. The class given is cell-based. The settings on record: pH 5.5, 1% TSB.
The subject of a further data set is S. aureus ATCC 6538. Put plainly: CFU-assay, S. aureus-cidal activity. The class given is cell-based, Staphylococcus aureus. The settings on record: pH 5.5, 1% TSB. A digest of the protocol:
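Bactericidal CFU-assay in nutrient-deficient 10 mM sodium phosphate buffer pH 5.5 with 0.25% glucose, counting surviving colonies across twofold peptide dilutions from 300 μg/ml to 19 ng/ml. Output is minimal bactericidal concentration (e.g. MBC90, MBC100); some peptides also tested at pH 7.0.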

Data set [5] concerns Burkholderia cepacia ATCC 25416. Put plainly: CFU-assay, Burkholderia cepacia-cidal activity. The settings on record: pH 5.5, 0.25% glucose. The class given is cell-based.
In the next data set the test system is P. aeruginosa ATCC 27853. The class given is cell-based, Pseudomonas aeruginosa. The settings on record: ATCC 27853, 2 h. As to the method: as §2
In a further data set the test system is erythrocytes. Put plainly: Hemolysis assay. The class given is cell-based. A digest of the protocol: as §1
Setting [6] is: erythrocytes, read-out: Hemolysis (CC50).

The values below come from patent US11479587B2, “Cationic intrinsically disordered antimicrobial peptides” (priority 2016, dated 2022).

Values joined by “and” are separate entries in the source; they are usually repeats but may differ in a detail not shown here. Equal values may be shown once. Read-outs that look alike come from different tables or passages of the source. Residues, ends and D or L forms follow the SMILES beside them.

In general, CC50 refers to the concentration that lowers cell viability or growth by half. The low end stands for greater toxicity to the cells, the high end for lower toxicity to the cells. As to `CCCCCCCCCCCCCCCC(=O)N[C@@H](CCCNC(=N)N)C(=O)NCC(=O)N[C@@H](CO)C(=O)N[C@@H](CCCNC(=N)N)C(=O)N[C@@H](CO)C(=O)NCC(=O)N[C@@H](CCC(N)=O)C(=O)N[C@@H](CO)C(=O)N[C@@H](CO)C(=O)N[C@@H](CCCNC(=N)N)C(=O)NCC(=O)N[C@@H](CCC(=O)O)C(=O)N[C@@H](CCCNC(=N)N)C(=O)N[C@@H](CCCNC(=N)N)C(=O)NCC(=O)N[C@@H](CO)C(=O)N[C@@H](CO)C(=O)N[C@@H](CO)C(=O)NCC(=O)N[C@@H](CO)C(=O)N[C@@H](CO)C(=O)N[C@@H](CO)C(=O)N[C@@H](CCCNC(=N)N)C(=O)O` [Pal-HR 1-11 3H3R] (HELM PEPTIDE1{[CCCCCCCCCCCCCCCC(=O)[*:2]].R.G.S.R.S.G.Q.S.S.R.G.E.R.R.G.S.S.S.G.S.S.S.R}$$$$V2.0), the HC50 in “Hemolysis assay” (setting [6]) was greater than 300 µg/mL. Besides, in [1], the cytotoxic concentration (CC50) is greater than 32 µg/mL. Also, in [2] (Mueller-Hinton medium), the “MIC, S. aureus ATCC 43300” value was greater than 32 µg/mL. In addition, the “MIC, E. coli ATCC 25922” value against E. coli ATCC 25922 (Mueller-Hinton medium) is no less than 32 µg/mL. For the same compound, the “MIC, C. albicans ATCC 90028” value against C. albicans ATCC 928 was no less than 32 µg/mL. Further, the “MIC, C. neoformans ATCC 208821” value in the data set on C. neoformans was no less than 32 µg/mL. In the data set on A. baumannii ATCC 19606 (Mueller-Hinton medium), the “MIC, A. baumannii ATCC 19606” value was no less than 8 µg/mL.

For “GRHGSGLGHSSSHGQHGSGSGRSSSRGPY (Peptide derived from human hornerin (HR 1-17))”, the MBC90 in data set [3] was 0.56 µM; in data set [3] (pH 5.5, 0.25% glucose) it was 1.18 µg/mL; in data set [3] (pH 7.2, 1.% TSB), greater than 300 µg/mL; with P. aeruginosa ATCC 10145 (pH 5.0, 0.25% glucose), 0.038 µg/mL and 0.0375 µg/mL; with P. aeruginosa ATCC 10145 (pH 5.5, 1% TSB), 0.59 µg/mL; in [4], greater than 300 µg/mL. The MBC90 (with S. aureus ATCC 6538; in [5]) was greater than 300 µg/mL throughout. Further, the MBC100 is 9.38 µg/mL in data set [3] (pH 5.5, 0.25% glucose); 150 µg/mL and >300 µg/mL in data set [3] (pH 5.5, 1% TSB); greater than 300 µg/mL in data set [3] (pH 7.2, 1.% TSB); 0.15 µg/mL against P. aeruginosa ATCC 10145 (pH 5.0, 0.25% glucose); 0.15 µg/mL and 0.3 µg/mL against P. aeruginosa ATCC 10145 (pH 5.5, 0.25% glucose); 18.75 µg/mL with P. aeruginosa ATCC 10145 (pH 5.5, 1% TSB). For the same compound, the MBC100 (in data set [4]; against S. aureus ATCC 6538; in data set [5]) was greater than 300 µg/mL throughout.

Consider `CCCCCCCCCCCCCCCC(=O)N[C@@H](CCCNC(=N)N)C(=O)NCC(=O)N[C@@H](CO)C(=O)N[C@@H](CCCNC(=N)N)C(=O)N[C@@H](CO)C(=O)NCC(=O)N[C@@H](CCC(N)=O)C(=O)N[C@@H](CO)C(=O)N[C@@H](CO)C(=O)N[C@@H](CCCNC(=N)N)C(=O)NCC(=O)N[C@@H](CCC(=O)O)C(=O)N[C@@H](CCCNC(=N)N)C(=O)N[C@@H](CCCNC(=N)N)C(=O)O` [Pal-HR 1-11 2H2R-14] (HELM PEPTIDE1{[CCCCCCCCCCCCCCCC(=O)[*:2]].R.G.S.R.S.G.Q.S.S.R.G.E.R.R}$$$$V2.0), for which the HC50 in “Hemolysis assay” (setting [6]) is greater than 300 µg/mL. Moreover, the CC50 in data set [1] is greater than 32 µg/mL. Further, the “MIC, S. aureus ATCC 43300” value in data set [2] (Mueller-Hinton medium) is no less than 8 µg/mL. Also, in the data set with E. coli ATCC 25922 (Mueller-Hinton medium), the “MIC, E. coli ATCC 25922” value is no less than 8 µg/mL. Besides, in the data set on C. neoformans, the “MIC, C. neoformans ATCC 208821” value was no less than 8 µg/mL. Besides, the “MIC, A. baumannii ATCC 19606” value in the data set with A. baumannii ATCC 19606 (Mueller-Hinton medium) was no less than 4 µg/mL.

Turning to `CCCCCCCCCCCCCCCC(=O)NCC(=O)N[C@@H](CCCNC(=N)N)C(=O)N[C@@H](CCCNC(=N)N)C(=O)NCC(=O)NCC(=O)N[C@@H](CCCNC(=N)N)C(=O)NCC(=O)NCC(=O)N[C@@H](CCCNC(=N)N)C(=O)NCC(=O)N[C@@H](CCCNC(=N)N)C(=O)O` [Pal-GR11] (HELM PEPTIDE1{[CCCCCCCCCCCCCCCC(=O)[*:2]].G.R.R.G.G.R.G.G.R.G.R}$$$$V2.0), the HC50 in “Hemolysis assay” worked out at 90 µg/mL. In addition, the CC50 in data set [1] was greater than 32 µg/mL. In addition, the “MIC, S. aureus ATCC 43300” value in [2] (ATCC 43300, 18 h) is no less than 4 µg/mL. Further, the “MIC, E. coli ATCC 25922” value in the data set with E. coli ATCC 25922 (ATCC 25922, 2 h) is no less than 8 µg/mL. Also, the “MIC, C. albicans ATCC 90028” value against C. albicans ATCC 928 (ATCC 928) is no less than 4 µg/mL. In the data set with C. neoformans, the “MIC, C. neoformans ATCC 208821” value was no less than 4 µg/mL. The “MIC, A. baumannii ATCC 19606” value against A. baumannii ATCC 19606 (ATCC 19606, 2 h) is no less than 8 µg/mL. In addition, the “MIC, P. aeruginosa ATCC 27853” value against P. aeruginosa ATCC 27853 is no less than 16 µg/mL.

As a reminder, the MIC is the lowest concentration that inhibits growth of the organism. A high value points to weaker potency. In the case of `CCCCCCCCCCCCCCCC(=O)NCC(=O)N[C@@H](CCCNC(=N)N)C(=O)N[C@@H](CCCNC(=N)N)C(=O)NCC(=O)N[C@@H](CO)C(=O)NCC(=O)N[C@@H](CC(C)C)C(=O)NCC(=O)N[C@@H](CCCNC(=N)N)C(=O)N[C@@H](CO)C(=O)N[C@@H](CO)C(=O)N[C@@H](CO)C(=O)N[C@@H](CCCNC(=N)N)C(=O)NCC(=O)N[C@@H](CCC(N)=O)C(=O)N[C@@H](CCCNC(=N)N)C(=O)NCC(=O)N[C@@H](CO)C(=O)NCC(=O)N[C@@H](CO)C(=O)NCC(=O)N[C@@H](CCCNC(=N)N)C(=O)O` [Pal-HR 1-18 HR] (HELM PEPTIDE1{[CCCCCCCCCCCCCCCC(=O)[*:2]].G.R.R.G.S.G.L.G.R.S.S.S.R.G.Q.R.G.S.G.S.G.R}$$$$V2.0), the “hemolytic activity (in words)” value in the data set with erythrocytes was “low hemolytic activity”. Also, in the data set “Hemolysis assay”, the HC50 is greater than 300 µg/mL. For the same compound, in “Hemolysis assay” (human, washed erythrocytes from EDTA-blood, pH 7.4), the HC50 at 1 h was greater than 119 µM. The CC50 in [1] is > 32 µg/mL and > 13.3 µM. In addition, in data set [2] (ATCC 43300, 18 h), the “MIC, S. aureus ATCC 43300” value is no less than 8 µg/mL. Besides, the “MIC, E. coli ATCC 25922” value against E. coli ATCC 25922 (ATCC 25922, 2 h) is no less than 4 µg/mL. The minimal inhibitory concentration (MIC) with C. albicans ATCC 928 (ATCC 928, 18 h, pH 7.4) was 1 to 32 µg/mL. The “MIC, C. neoformans ATCC 208821” value in the data set with C. neoformans is no less than 1 µg/mL. Moreover, in the data set on A. baumannii ATCC 19606 (ATCC 19606, 2 h), the “MIC, A. baumannii ATCC 19606” value was no less than 1 µg/mL. In addition, the “MIC, P. aeruginosa ATCC 27853” value against P. aeruginosa ATCC 27853 is no less than 16 µg/mL.

Take `CCCCCCCCCCCCCCCC(=O)NCC(=O)N[C@@H](CCCNC(=N)N)C(=O)N[C@@H](CCCNC(=N)N)C(=O)NCC(=O)N[C@@H](CO)C(=O)NCC(=O)N[C@@H](CC(C)C)C(=O)NCC(=O)N[C@@H](CCCNC(=N)N)C(=O)N[C@@H](CO)C(=O)N[C@@H](CO)C(=O)N[C@@H](CO)C(=O)N[C@@H](CCCNC(=N)N)C(=O)O` [Pal-HR 1-18 3H3R-GR13] (HELM PEPTIDE1{[CCCCCCCCCCCCCCCC(=O)[*:2]].G.R.R.G.S.G.L.G.R.S.S.S.R}$$$$V2.0): the “hemolytic activity (in words)” value with erythrocytes is “low hemolytic activity”. This compound displayed an HC50 in “Hemolysis assay” greater than 300 µg/mL. This compound also displayed a cytotoxic concentration (CC50) in [1] greater than 32 µg/mL. In [2] (ATCC 43300, 18 h), the “MIC, S. aureus ATCC 43300” value was no less than 16 µg/mL. Also, the “MIC, C. neoformans ATCC 208821” value with C. neoformans is no less than 16 µg/mL. Also, the “MIC, A. baumannii ATCC 19606” value in the data set on A. baumannii ATCC 19606 (ATCC 19606, 2 h) was no less than 16 µg/mL.
